Results on 102 compounds are retold here after a flash point compilation (Sun et al. 2020).

Structures can show the parent of a compound that is named as a salt.

For `O=C(OC1CCCCC1)c1ccccc1C(=O)OC1CCCCC1` [dicyclohexyl benzene-1,2-dicarboxylate], the flash point was determined as 207.00 °C.
Take `CCOC(=O)/C=C/C(=O)OCC` [diethyl (E)-but-2-enedioate]: the flash point came out at 104.00 °C.
To `CCOC(=O)c1ccccc1C(=O)OCC` [diethyl benzene-1,2-dicarboxylate] belongs 140.00 °C.
To `CCOC(=O)CCC(=O)OCC` [diethyl butanedioate] belongs 90.00 °C; to `CCOC(=O)OCC` [diethyl carbonate], 25.00 °C.
To `CCOC(=O)C(=O)OCC` [diethyl oxalate] belongs 76.00 °C; to `CCOS(=O)(=O)OCC` [diethyl sulfate], 104.00 °C; to `CCCCCCCOC(=O)c1ccccc1C(=O)OCCCCCCC` [diheptyl benzene-1,2-dicarboxylate], 224.00 °C.
`COCOC` [dimethoxymethane] registered a flash point of -18.00 °C.
Compound `COC(=O)CCC(=O)OC` [dimethyl butanedioate] gave a flash point of 85.00 °C.
The compound `COC(=O)CCCC(=O)OC` [dimethyl pentanedioate] yielded a flash point of 103.00 °C.
With `COS(=O)(=O)OC` [dimethyl sulfate] the figure was 83.00 °C; with `CN(C)C(=S)SSC(=S)N(C)C` [dimethylcarbamothioylsulfanyl N,N-dimethylcarbamodithioate], 138.00 °C.
To `CN(C)C#N` [dimethylcyanamide] belongs 71.00 °C; to `CCCCCCCCOP(=O)(O)OCCCCCCCC` [dioctyl hydrogen phosphate], 196.00 °C; to `CCCCCCCCCCCCCCCCCCCCCC` [docosane], 113.00 °C.
To `CCCCCCCCCCCCN` [dodecan-1-amine] belongs 178.00 °C; to `CCCCCCCCCCCC(=O)O` [dodecanoic acid], 113.00 °C.
In the case of `CCO` [ethanol], the flash point was found to be 13.00 °C.
With `C=C` [ethene] the figure was -136.00 °C.
To `CCOc1ccccc1` [ethoxybenzene] belongs 63.00 °C; to `CCOC(=O)CBr` [ethyl 2-bromoacetate], 48.00 °C.
With `C=C(C#N)C(=O)OCC` [ethyl 2-cyanoprop-2-enoate] the figure was 82.00 °C; with `CCOC(=O)C(C)O` (configuration not stated) [ethyl 2-hydroxypropanoate], 46.00 °C.
For `C=C(C)C(=O)OCC` [ethyl 2-methylprop-2-enoate], the flash point worked out at 16.00 °C.
With `CCOC(=O)CC(C)O` (configuration not stated) [ethyl 3-hydroxybutanoate] the figure was 64.00 °C.
With `CCOC(=O)C#Cc1ccccc1` [ethyl 3-phenylprop-2-ynoate] the figure was 113.00 °C; with `CCOS(=O)(=O)c1ccc(C)cc1` [ethyl 4-methylbenzenesulfonate], 158.00 °C; with `CCOC(=O)NC` [ethyl N-methylcarbamate], 73.00 °C.
To `CCCC(=O)OCC` [ethyl butanoate] belongs 24.00 °C; to `CCOC(N)=O` [ethyl carbamate], 92.00 °C; to `CCON=O` [ethyl nitrite], -35.00 °C.
`CCOC(=O)CC` [ethyl propanoate]: the flash point turned out to be 12.00 °C.
Regarding `CCC1CCCCC1` [ethylcyclohexane], the flash point came to 35.00 °C.
In the case of `CCSCC` [ethylsulfanylethane], the flash point is -10.00 °C.
With `c1ccc2c(c1)-c1cccc3cccc-2c13` [fluoranthene] the figure was 198.00 °C.
`O=Cc1ccco1` [furan-2-carbaldehyde]: the flash point was determined as 60.00 °C.
To `OCc1ccco1` [furan-2-ylmethanol] belongs 75.00 °C; to `CC(=O)OCc1ccco1` [furan-2-ylmethyl acetate], 66.00 °C; to `CCCCCCCCCCCCCCCCCCCCC` [henicosane], 113.00 °C.
To `CCCCCC(C)O` (configuration not stated) [heptan-2-ol] belongs 71.00 °C.
To `CCCCCC(C)=O` [heptan-2-one] belongs 39.00 °C; to `CCCCC(=O)CC` [heptan-3-one], 46.00 °C.
On to `CCCC(=O)CCC` [heptan-4-one], for which the flash point was 49.00 °C.
With `CCCCCCC` [heptane] the figure was -4.00 °C; with `CCCCCCCOC(C)=O` [heptyl acetate], 68.00 °C; with `CC=CC=CC(=O)O` [hexa-2,4-dienoic acid], 127.00 °C.
To `CCCCCCCCCCCCCCCCN` [hexadecan-1-amine] belongs 141.00 °C; to `CCCCCCCCCCCCCCCC` [hexadecane], 135.00 °C; to `CCCCC(C)=O` [hexan-2-one], 23.00 °C.
With `NCCCCCCN` [hexane-1,6-diamine] the figure was 81.00 °C; with `OCCCCCCO` [hexane-1,6-diol], 102.00 °C.
On to `CC(O)CCC(C)O` (configuration not stated) [hexane-2,5-diol], for which the flash point was determined as 101.00 °C.
Compound `O=C(O)CCCCC(=O)O` [hexanedioic acid] returned a flash point of 191.00 °C.
`C=CC(=O)OCCCCCC` [hexyl prop-2-enoate] registered a flash point of 68.00 °C.
To `CCCCCCCCCCCCCCCCCCCC` [icosane] belongs 100.00 °C.
To `Ic1ccccc1` [iodobenzene] belongs 77.00 °C; to `O=C=Nc1ccccc1` [isocyanatobenzene], 56.00 °C; to `CN` [methanamine], 0.00 °C.
With `CS(=O)(=O)O` [methanesulfonic acid] the figure was 189.00 °C; with `CO` [methanol], 11.00 °C; with `COC(=O)c1ccccc1N` [methyl 2-aminobenzoate], 104.00 °C.
On to `COC(=O)CCl` [methyl 2-chloroacetate], for which the flash point is 52.00 °C.
To `C=C(C#N)C(=O)OC` [methyl 2-cyanoprop-2-enoate] belongs 79.00 °C; to `COC(=O)C(C)O` (configuration not stated) [methyl 2-hydroxypropanoate], 51.00 °C.
Consider `C=C(C)C(=O)OC` [methyl 2-methylprop-2-enoate], for which the flash point was 10.00 °C.
To `COC(=O)CC(C)=O` [methyl 3-oxobutanoate] belongs 70.00 °C; to `COC(=O)c1ccccc1` [methyl benzoate], 83.00 °C; to `COC=O` [methyl formate], -32.00 °C.
To `CCCCC(=O)OC` [methyl pentanoate] belongs 22.00 °C; to `COS(=O)(=O)C(F)(F)F` [methyl trifluoromethanesulfonate], 38.00 °C.
With `CC1CCCCC1` [methylcyclohexane] the figure was -4.00 °C; with `CN=C=O` [methylimino(oxo)methane], -7.00 °C; with `CN=C=S` [methylimino(sulfanylidene)methane], 35.00 °C.
`CSC` [methylsulfanylmethane] gave a flash point of -38.00 °C.
Consider `Oc1cccc2ccccc12` [naphthalen-1-ol], for which the flash point is 153.00 °C.
To `Nc1ccc2ccccc2c1` [naphthalen-2-amine] belongs 157.00 °C; to `Oc1ccc2ccccc2c1` [naphthalen-2-ol], 153.00 °C.
With `Nc1cccc2c(N)cccc12` [naphthalene-1,5-diamine] the figure was 226.00 °C; with `O=[N+]([O-])c1ccccc1` [nitrobenzene], 88.00 °C.
To `CC=CCCCCCC` [non-2-ene] belongs 26.00 °C; to `CCCCCCCC(C)=O` [nonan-2-one], 64.00 °C; to `CCCCC(=O)CCCC` [nonan-5-one], 60.00 °C.
`CCCCCCCCCS` [nonane-1-thiol] registered a flash point of 78.00 °C.
To `CCCCCCCCC` [nonane] belongs 31.00 °C; to `C=CCCCCC=C` [octa-1,7-diene], 9.00 °C.
To `CCCCCCCCCCCCCCCCCCO` [octadecan-1-ol] belongs 200.00 °C; to `CCCCCCCCCCCCCCCCCC(=O)O` [octadecanoic acid], 196.00 °C.
As to `CCCCCCC(C)=O` [octan-2-one], the flash point was 52.00 °C.
As for `CCCCCCCCS` [octane-1-thiol], the flash point amounted to 46.00 °C.
To `CCCCCCCCOC(=O)CCCCCCCC1OC1CCCCCCCC` (configuration not stated) [octyl 8-(3-octyloxiran-2-yl)octanoate] belongs 217.00 °C; to `C1CCOCC1` [oxane], -20.00 °C; to `O=C1CCCCCO1` [oxepan-2-one], 127.00 °C.
With `C1COC1` [oxetane] the figure was -28.00 °C; with `OCC1CO1` (configuration not stated) [oxiran-2-ylmethanol], 72.00 °C; with `CCCCCCC(C)(C)C(=O)OCC1CO1` (configuration not stated) [oxiran-2-ylmethyl 2,2-dimethyloctanoate], 129.00 °C.
With `C=C(C)C(=O)OCC1CO1` (configuration not stated) [oxiran-2-ylmethyl 2-methylprop-2-enoate] the figure was 83.00 °C; with `O=CC1CO1` (configuration not stated) [oxirane-2-carbaldehyde], 31.00 °C; with `CCCCCCCCCCCCCCCCCCCCCCCCC` [pentacosane], 120.00 °C.
On to `CCCCCN` [pentan-1-amine], for which the flash point came out at 7.00 °C.
With `CCCC(C)=O` [pentan-2-one] the figure was 7.00 °C; with `CCC(=O)CC` [pentan-3-one], 13.00 °C.
